Assay results as given in patent US20200163984A1, “USE OF ISOVALERYL SPIRAMYCIN I, II AND/OR III IN MANUFACTURING MEDICAMENT FOR TREATING AND/OR PREVENTING TUMOR, AND MEDICAMENT” (SHENYANG FUYANG PHARMACEUTICAL TECHNOLOGY CO., LTD., priority 2017, published 2020).

Experiments:
[1] = test system: transplanted tumor of human breast cancer cell MDA-MB-231; assay: MDA-MB-231 transplanted tumor in nude mice
Method: (§1) Then cell concentration was adjusted to 1×10^7/ml with matrigel, then each nude mouse was inoculated subcutaneously with 0.2 ml of cells at its right armpit and recorded as the first day of inoculation. When the tumor grows to be greater than or equal to 100 mm^3, the mice were randomly divided into 11 groups with 6 mice in each group: a model group, a cyclophosphamide group, isovaleryl spiramycin I groups with doses of 25, 50 and 100 mg/kg, isovaleryl spiramycin II groups with doses of 25, 50 and 100 mg/kg, and isovaleryl spiramycin III groups with doses of 25, 50 and 100 mg/kg. Each group was continuously administered intragastrically for 30 days with a dose of 20 ml/kg. The mice were sacrificed the next day after drug withdrawal and the indicators were tested. The long diameter and short diameter of the tumor, and the body weight of each mouse were recorded every 3 days from drug administration to nude mouse sacrifice.
(§2) The body weight of the nude mice and the long diameter (a) and short diameter (b) of the transplanted tumor were measured every 3 days, and the tumor volume (v), relative tumor volume (RTV) and relative tumor proliferation rate (T/C) are calculated respectively according to the following formulas, wherein V=a×b^2/2; RTV=V/V0 (V0 is the tumor volume before administration, V is the tumor volume before sacrifice), and T/C (%)=treatment group RTV/model control group RTV×100%.
(§3) Each mouse was weighed and sacrificed. After the tumor was completely stripped off from the body of the mouse, the non-tumor tissues such as blood stains and fat were removed to weigh the tumor and calculate the tumor growth inhibition rate. The average tumor weight of each group of mice is used as an indicator of efficacy. Tumor growth inhibition rate (%)=(1−the average tumor weight of the treatment group/the average tumor weight of the model group)×100%.

[2] = test system: transplanted tumor of human thyroid cancer cell TPC-1; assay: TPC-1 transplanted tumor in nude mice; conditions: for Tumor Volume (mm3) (d30): d 30
Method: as §1, with “group:” for “group: a model group, a cyclophosphamide group,”
as §2, §3

[3] = Spleen index of A549 lung cancer tumor-bearing mice; conditions: n = 6
[4] = test system: transplanted tumor of human breast cancer cell MCF-7; assay: MCF-7 transplanted tumor in nude mice
Method: as §1, §2, §3

[5] = test system: transplanted tumor of human pancreatic cancer cell PANC-1; assay: PANC-1 transplanted tumor in nude mice; conditions: for Tumor Volume (mm3) (d 1): d1
Method: as §1, §2, §3

[6] = MDA-MB-231, 25 mg/kg (low dose) i.g. 30 days
[7] = MDA-MB-231, 50 mg/kg (medium dose) i.g. 30 days
[8] = MDA-MB-231, 100 mg/kg (high dose) i.g. 30 days
[9] = TPC-1, high dose (100 mg/kg in method) i.g. 30 days
[10] = TPC-1, low dose (25 mg/kg in method) i.g. 30 days
[11] = TPC-1, medium dose (50 mg/kg in method) i.g. 30 days
[12] = MCF-7, 25 mg/kg (low dose) i.g. 30 days
[13] = MCF-7, 50 mg/kg (medium dose) i.g. 30 days
[14] = MCF-7, 100 mg/kg (high dose) i.g. 30 days
[15] = PANC-1, 12.5 mg/kg (low dose) i.g. 30 days
[16] = PANC-1, 25 mg/kg (medium dose) i.g. 30 days
[17] = PANC-1, 50 mg/kg (high dose) i.g. 30 days

mouse weight compared with the model group ([1]; mouse, in vivo): no significant changes
mouse weight compared with the model group ([2]; mouse, in vivo): no significant changes
mouse weight compared with the model group ([4]; mouse, in vivo): no significant changes
mouse weight compared with the model group ([5]; mouse, in vivo): no significant changes
SMILES: COC1C(OC(C)=O)CC(=O)OC(C)CC=CC=CC(OC2CCC(N(C)C)C(C)O2)C(C)CC(CC=O)C1OC1OC(C)C(OC2CC(C)(O)C(OC(=O)CC(C)C)C(C)O2)C(N(C)C)C1O (stereo not drawn) [Isovaleryl spiramycin II, isovaleryl spiramycin II]
Inhibition Rate (tumor growth inhibition rate) [1, 6]: 18.17%
Relative Tumor Proliferation Rate (T/C) [1, 6]: 80.22%
Relative Tumor Volume (RTV) [1, 6]: 12.53 ± 1.78
Tumor Volume (d 1) [1, 6]: 119.72 ± 6.52 mm3
Tumor Volume (d 30) [1, 6]: 1493.96 ± 171.49 mm3
Tumor Weight [1, 6]: 1.90 ± 0.31 g
Inhibition Rate (tumor growth inhibition rate) [1, 7]: 29.66%
Relative Tumor Proliferation Rate (T/C) [1, 7]: 58.78%
Relative Tumor Volume (RTV) [1, 7]: 9.18 ± 2.38
Tumor Volume (d 1) [1, 7]: 119.07 ± 3.19 mm3
Tumor Volume (d 30) [1, 7]: 1094.89 ± 291.37 mm3
Tumor Weight [1, 7]: 1.63 ± 0.32 g
Inhibition Rate (tumor growth inhibition rate) [1, 8]: 58.91%
Relative Tumor Proliferation Rate (T/C) [1, 8]: 30.89%
Relative Tumor Volume (RTV) [1, 8]: 6.08 ± 1.74
Tumor Volume (d 1) [1, 8]: 115.89 ± 9.01 mm3
Tumor Volume (d 30) [1, 8]: 700.44 ± 192.38 mm3
Tumor Weight [1, 8]: 0.95 ± 0.42 g
tumor volume and relative tumor volume compared with the model group ([1]; MDA-MB-231, low, medium and high doses, P<0.05): significantly lower
Relative Tumor Proliferation Rate (T/C) [2, 9]: 38.61%
tumor growth inhibition rate [2, 9]: 62.04%
Relative Tumor Proliferation Rate (T/C) [2, 10]: 86.15%
tumor growth inhibition rate [2, 10]: 20.91%
tumor volume and relative tumor volume compared with the model group ([2]; TPC-1, low, medium and high doses, P<0.05): significantly lower
Relative Tumor Proliferation Rate (T/C) [2, 11]: 59.08%
tumor growth inhibition rate [2, 11]: 31.61%
Inhibition Rate (%) ([2]; dose 25 mg/kg): 20.91%
Relative Tumor Proliferation Rate (T/C) ([2]; dose 25 mg/kg): 86.15%
Relative Tumor Volume (RTV) ([2]; dose 25 mg/kg): 14.18 ± 1.70
Tumor Weight ([2]; dose 25 mg/kg): 1.91 ± 0.33 g
Tumor Volume (mm3) (d 1) ([2]; dose 25 mg/kg): 119.12 ± 3.42 mm3
Tumor Volume (mm3) (d30) ([2]; dose 25 mg/kg): 1689.63 ± 210.37 mm3
Inhibition Rate (%) ([2]; dose 50 mg/kg): 31.61%
Relative Tumor Proliferation Rate (T/C) ([2]; dose 50 mg/kg): 59.08%
Relative Tumor Volume (RTV) ([2]; dose 50 mg/kg): 9.72 ± 3.02
Tumor Weight ([2]; dose 50 mg/kg): 1.65 ± 0.32 g
Tumor Volume (mm3) (d 1) ([2]; dose 50 mg/kg): 118.54 ± 6.49 mm3
Tumor Volume (mm3) (d30) ([2]; dose 50 mg/kg): 1148.57 ± 344.78 mm3
Inhibition Rate (%) ([2]; dose 100 mg/kg): 62.04%
Relative Tumor Proliferation Rate (T/C) ([2]; dose 100 mg/kg): 38.61%
Relative Tumor Volume (RTV) ([2]; dose 100 mg/kg): 6.36 ± 2.38
Tumor Weight ([2]; dose 100 mg/kg): 0.92 ± 0.42 g
Tumor Volume (mm3) (d 1) ([2]; dose 100 mg/kg): 117.30 ± 6.48 mm3
Tumor Volume (mm3) (d30) ([2]; dose 100 mg/kg): 754.42 ± 320.69 mm3
Body Weight (g) (d1) ([2]; mouse, in vivo, 25 mg/kg): 20.54 ± 1.45 g
Body Weight (g) (d30) ([2]; mouse, in vivo, 25 mg/kg): 21.16 ± 1.37 g
Body Weight (g) (d1) ([2]; mouse, in vivo, 50 mg/kg): 20.07 ± 1.13 g
Body Weight (g) (d30) ([2]; mouse, in vivo, 50 mg/kg): 12.45 ± 1.63 g
Body Weight (g) (d1) ([2]; mouse, in vivo, 100 mg/kg): 21.78 ± 1.53 g
Body Weight (g) (d30) ([2]; mouse, in vivo, 100 mg/kg): 12.11 ± 1.20 g
Spleen Index (%) ([3]; dose 13 mg/kg): 0.35 ± 0.06%
Spleen Index (%) ([3]; dose 26 mg/kg): 0.32 ± 0.09%
Spleen Index (%) ([3]; dose 52 mg/kg): 0.37 ± 0.06%
Inhibition Rate (tumor growth inhibition rate) [4, 12]: 20.55%
Relative Tumor Proliferation Rate (T/C) [4, 12]: 79.23%
Relative Tumor Volume (RTV) [4, 12]: 13.87 ± 1.53
Tumor Volume (d 1) [4, 12]: 104.64 ± 10.69 mm3
Tumor Volume (d 30) [4, 12]: 1450.36 ± 218.20 mm3
Tumor Weight [4, 12]: 2.16 ± 0.51 g
Inhibition Rate (tumor growth inhibition rate) [4, 13]: 41.72%
Relative Tumor Proliferation Rate (T/C) [4, 13]: 60.58%
Relative Tumor Volume (RTV) [4, 13]: 10.60 ± 1.10
Tumor Volume (d 1) [4, 13]: 105.81 ± 11.20 mm3
Tumor Volume (d 30) [4, 13]: 1113.42 ± 71.14 mm3
Tumor Weight [4, 13]: 1.58 ± 0.51 g
Inhibition Rate (tumor growth inhibition rate) [4, 14]: 56.81%
Relative Tumor Proliferation Rate (T/C) [4, 14]: 44.45%
Relative Tumor Volume (RTV) [4, 14]: 7.78 ± 1.71
Tumor Volume (d 1) [4, 14]: 119.69 ± 14.63 mm3
Tumor Volume (d 30) [4, 14]: 914.69 ± 130.26 mm3
Tumor Weight [4, 14]: 1.17 ± 0.47 g
Relative Tumor Proliferation Rate (T/C) ([4]; MCF-7, 100 mg/kg (high dose) i.g. 30 days, listed as isovaleryl spiramycin II): 44.44%
tumor volume and relative tumor volume compared with the model group ([4]; MCF-7, low, medium and high doses, P<0.05): significantly lower
Inhibition Rate (tumor growth inhibition rate) [5, 15]: 20.55%
Tumor Weight [5, 15]: 2.16 ± 0.51 g
Inhibition Rate (tumor growth inhibition rate) [5, 16]: 41.72%
Tumor Weight [5, 16]: 1.58 ± 0.51 g
Inhibition Rate (tumor growth inhibition rate) [5, 17]: 56.81%
Tumor Weight [5, 17]: 1.17 ± 0.47 g
Relative Tumor Proliferation Rate (T/C) ([5]; PANC-1, high dose i.g. 30 days): 44.44%
Relative Tumor Proliferation Rate (T/C) ([5]; PANC-1, low dose i.g. 30 days): 79.23%
tumor volume and relative tumor volume compared with the model group ([5]; PANC-1, low, medium and high doses, P<0.05): significantly lower
Relative Tumor Proliferation Rate (T/C) ([5]; PANC-1, medium dose i.g. 30 days): 60.58%
Relative Tumor Proliferation Rate (T/C) ([5]; PANC-1 nude mice, 12.5 mg/kg): 79.23%
Relative Tumor Volume (RTV) ([5]; PANC-1 nude mice, 12.5 mg/kg): 13.87 ± 1.53
Tumor Volume (mm3) (d 1) ([5]; PANC-1 nude mice, 12.5 mg/kg): 104.64 ± 10.69 mm3
Tumor Volume (mm3) (d30) ([5]; PANC-1 nude mice, 12.5 mg/kg): 1450.36 ± 218.20 mm3
Relative Tumor Proliferation Rate (T/C) ([5]; PANC-1 nude mice, 25 mg/kg): 60.58%
Relative Tumor Volume (RTV) ([5]; PANC-1 nude mice, 25 mg/kg): 10.60 ± 1.10
Tumor Volume (mm3) (d 1) ([5]; PANC-1 nude mice, 25 mg/kg): 105.81 ± 11.20 mm3
Tumor Volume (mm3) (d30) ([5]; PANC-1 nude mice, 25 mg/kg): 1113.42 ± 71.14 mm3
Relative Tumor Proliferation Rate (T/C) ([5]; PANC-1 nude mice, 50 mg/kg): 44.45%
Relative Tumor Volume (RTV) ([5]; PANC-1 nude mice, 50 mg/kg): 7.78 ± 1.71
Tumor Volume (mm3) (d 1) ([5]; PANC-1 nude mice, 50 mg/kg): 119.69 ± 14.63 mm3
Tumor Volume (mm3) (d30) ([5]; PANC-1 nude mice, 50 mg/kg): 914.69 ± 130.26 mm3
